In ChEMBL document CHEMBL2203036, “Discovery of 1-[2-(2,4-dimethylphenylsulfanyl)phenyl]piperazine (Lu AA21004): a novel multimodal compound for the treatment of major depressive disorder” (J Med Chem, 2011):
Calls of active or inactive are those of the source. No cut-off for these calls is given here.

How the values were obtained:
Rattus norvegicus [1] = assay: Target occupancy at SERT in Harlan rat at 5 mg/kg, sc administered QD for 3 days relative to vehicle-treated control; type: functional; conditions: route subcutaneous
Rattus norvegicus [2] = assay: Target occupancy at SERT in Harlan rat at 10 mg/kg, sc administered QD for 3 days relative to vehicle-treated control; type: functional; conditions: route subcutaneous
[3] = target: 5-hydroxytryptamine receptor 7 (Homo sapiens, UniProt P34969); assay: Binding affinity to human 5HT7 receptor
[4] = target: 5-hydroxytryptamine receptor 6 (Homo sapiens, UniProt P50406); assay: Binding affinity to human 5HT6 receptor
Sequence of 5-hydroxytryptamine receptor 6 (P50406 whole entry): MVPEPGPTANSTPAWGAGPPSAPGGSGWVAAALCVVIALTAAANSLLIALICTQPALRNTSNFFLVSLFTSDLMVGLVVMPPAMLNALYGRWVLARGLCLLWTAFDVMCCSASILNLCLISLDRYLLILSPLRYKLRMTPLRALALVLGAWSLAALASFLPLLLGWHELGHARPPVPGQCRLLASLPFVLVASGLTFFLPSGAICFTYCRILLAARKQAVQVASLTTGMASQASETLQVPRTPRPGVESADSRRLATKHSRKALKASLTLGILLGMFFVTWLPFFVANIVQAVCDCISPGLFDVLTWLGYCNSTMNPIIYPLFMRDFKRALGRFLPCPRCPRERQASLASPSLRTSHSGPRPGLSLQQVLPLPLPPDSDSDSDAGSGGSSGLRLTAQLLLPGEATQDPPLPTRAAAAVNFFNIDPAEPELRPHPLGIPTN

[5] = target: 5-hydroxytryptamine receptor 5A (Homo sapiens, UniProt P47898); assay: Binding affinity to human 5HT5A receptor
Sequence of 5-hydroxytryptamine receptor 5A (P47898 whole entry): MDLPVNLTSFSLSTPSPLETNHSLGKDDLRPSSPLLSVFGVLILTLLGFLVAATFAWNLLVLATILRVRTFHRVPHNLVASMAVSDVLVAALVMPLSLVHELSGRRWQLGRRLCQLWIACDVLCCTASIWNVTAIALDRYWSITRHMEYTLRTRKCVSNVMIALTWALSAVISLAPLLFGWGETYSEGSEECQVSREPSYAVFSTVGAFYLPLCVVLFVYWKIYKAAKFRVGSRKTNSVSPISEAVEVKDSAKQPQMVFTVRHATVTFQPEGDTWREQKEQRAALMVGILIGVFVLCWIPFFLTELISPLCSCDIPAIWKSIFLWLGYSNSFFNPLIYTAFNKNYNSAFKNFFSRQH

[6] = target: 5-hydroxytryptamine receptor 2C (Homo sapiens, UniProt P28335); assay: Binding affinity to human 5HT2C receptor
Sequence of 5-hydroxytryptamine receptor 2C (P28335 whole entry): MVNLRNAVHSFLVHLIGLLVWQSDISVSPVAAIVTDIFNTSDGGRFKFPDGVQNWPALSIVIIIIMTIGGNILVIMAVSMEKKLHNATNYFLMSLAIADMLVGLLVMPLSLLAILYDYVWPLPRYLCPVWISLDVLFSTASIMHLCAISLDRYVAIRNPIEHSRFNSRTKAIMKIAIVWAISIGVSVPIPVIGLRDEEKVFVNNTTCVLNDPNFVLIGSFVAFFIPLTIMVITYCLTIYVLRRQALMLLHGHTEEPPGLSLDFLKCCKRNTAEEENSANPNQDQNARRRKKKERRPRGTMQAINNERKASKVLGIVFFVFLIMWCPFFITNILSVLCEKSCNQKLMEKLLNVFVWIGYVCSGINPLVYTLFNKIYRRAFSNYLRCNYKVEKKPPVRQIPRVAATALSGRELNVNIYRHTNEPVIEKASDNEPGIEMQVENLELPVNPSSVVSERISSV

[7] = target: Beta-2 adrenergic receptor (Homo sapiens, UniProt P07550); assay: Binding affinity to human beta 2 adrenergic receptor
[8] = target: Beta-1 adrenergic receptor (Homo sapiens, UniProt P08588); assay: Binding affinity to human beta 1 adrenergic receptor
Sequence of Beta-1 adrenergic receptor (P08588 whole entry): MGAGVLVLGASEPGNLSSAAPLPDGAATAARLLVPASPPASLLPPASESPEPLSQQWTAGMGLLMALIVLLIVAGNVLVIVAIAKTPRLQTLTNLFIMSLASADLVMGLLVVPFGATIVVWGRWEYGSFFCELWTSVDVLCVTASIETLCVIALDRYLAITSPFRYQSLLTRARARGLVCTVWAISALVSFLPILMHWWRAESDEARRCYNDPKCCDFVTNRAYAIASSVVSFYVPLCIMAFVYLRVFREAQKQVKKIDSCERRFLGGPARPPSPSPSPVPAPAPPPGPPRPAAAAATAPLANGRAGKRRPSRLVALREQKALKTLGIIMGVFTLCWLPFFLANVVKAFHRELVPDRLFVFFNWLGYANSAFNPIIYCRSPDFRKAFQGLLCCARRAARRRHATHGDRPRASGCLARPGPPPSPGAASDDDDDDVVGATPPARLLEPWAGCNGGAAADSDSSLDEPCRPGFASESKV

Histamine H2 receptor = Histamine H2 receptor (Homo sapiens, UniProt P25021); assay: Binding affinity to human histamine H2 receptor
Sequence of Histamine H2 receptor (P25021 whole entry): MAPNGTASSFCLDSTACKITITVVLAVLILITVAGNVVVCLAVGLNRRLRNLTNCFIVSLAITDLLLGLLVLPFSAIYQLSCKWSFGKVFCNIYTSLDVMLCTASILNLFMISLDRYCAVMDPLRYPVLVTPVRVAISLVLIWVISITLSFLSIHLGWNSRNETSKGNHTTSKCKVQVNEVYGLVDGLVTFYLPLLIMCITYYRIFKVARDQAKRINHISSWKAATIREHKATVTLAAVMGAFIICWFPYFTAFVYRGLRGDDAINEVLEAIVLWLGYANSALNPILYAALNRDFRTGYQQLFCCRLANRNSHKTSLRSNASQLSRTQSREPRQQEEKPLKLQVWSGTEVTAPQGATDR

Histamine H1 receptor = Histamine H1 receptor (Homo sapiens, UniProt P35367); assay: Binding affinity to human histamine H1 receptor
Sequence of Histamine H1 receptor (P35367 whole entry): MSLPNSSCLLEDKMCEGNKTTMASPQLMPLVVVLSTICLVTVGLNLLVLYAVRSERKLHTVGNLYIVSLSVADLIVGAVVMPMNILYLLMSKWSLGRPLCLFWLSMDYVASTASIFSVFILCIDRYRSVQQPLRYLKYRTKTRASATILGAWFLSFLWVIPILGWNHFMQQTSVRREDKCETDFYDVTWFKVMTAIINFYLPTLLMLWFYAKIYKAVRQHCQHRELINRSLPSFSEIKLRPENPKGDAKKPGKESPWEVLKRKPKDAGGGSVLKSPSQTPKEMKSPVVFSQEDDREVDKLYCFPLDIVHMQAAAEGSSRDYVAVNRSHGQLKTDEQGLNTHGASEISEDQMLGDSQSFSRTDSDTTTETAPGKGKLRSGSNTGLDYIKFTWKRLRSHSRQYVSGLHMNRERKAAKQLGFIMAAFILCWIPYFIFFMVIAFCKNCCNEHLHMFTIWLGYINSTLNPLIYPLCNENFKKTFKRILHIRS

[9] = target: Sodium-dependent serotonin transporter (Homo sapiens, UniProt P31645); assay: Binding affinity to human SERT
Sequence of Sodium-dependent serotonin transporter (P31645 whole entry): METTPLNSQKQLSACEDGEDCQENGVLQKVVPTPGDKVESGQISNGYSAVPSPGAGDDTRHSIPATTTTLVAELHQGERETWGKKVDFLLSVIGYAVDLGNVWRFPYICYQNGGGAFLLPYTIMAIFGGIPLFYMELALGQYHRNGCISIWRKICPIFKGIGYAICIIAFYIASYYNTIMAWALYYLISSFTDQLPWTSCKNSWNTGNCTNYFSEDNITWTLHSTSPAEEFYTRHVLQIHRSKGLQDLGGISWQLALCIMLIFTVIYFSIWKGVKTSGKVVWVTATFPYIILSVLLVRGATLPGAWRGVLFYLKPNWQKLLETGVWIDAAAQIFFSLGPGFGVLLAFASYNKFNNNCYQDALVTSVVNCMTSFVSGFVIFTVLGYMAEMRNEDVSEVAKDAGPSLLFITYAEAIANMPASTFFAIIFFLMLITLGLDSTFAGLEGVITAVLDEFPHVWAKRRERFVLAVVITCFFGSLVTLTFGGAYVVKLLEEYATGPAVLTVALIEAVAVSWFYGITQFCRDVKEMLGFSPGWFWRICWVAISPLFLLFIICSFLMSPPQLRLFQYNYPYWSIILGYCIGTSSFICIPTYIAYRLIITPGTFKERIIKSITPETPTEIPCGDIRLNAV

[10] = target: 5-hydroxytryptamine receptor 3A (Rattus norvegicus, UniProt P35563); assay: Antagonist activity at rat 5HT3A receptor expressed in xenopus oocytes assessed as inhibition of 5HT-induced effect by electrophysiological method; type: functional, cell-based, Oocyte
Sequence of 5-hydroxytryptamine receptor 3A (Rattus norvegicus, UniProt P35563) (P35563 whole entry): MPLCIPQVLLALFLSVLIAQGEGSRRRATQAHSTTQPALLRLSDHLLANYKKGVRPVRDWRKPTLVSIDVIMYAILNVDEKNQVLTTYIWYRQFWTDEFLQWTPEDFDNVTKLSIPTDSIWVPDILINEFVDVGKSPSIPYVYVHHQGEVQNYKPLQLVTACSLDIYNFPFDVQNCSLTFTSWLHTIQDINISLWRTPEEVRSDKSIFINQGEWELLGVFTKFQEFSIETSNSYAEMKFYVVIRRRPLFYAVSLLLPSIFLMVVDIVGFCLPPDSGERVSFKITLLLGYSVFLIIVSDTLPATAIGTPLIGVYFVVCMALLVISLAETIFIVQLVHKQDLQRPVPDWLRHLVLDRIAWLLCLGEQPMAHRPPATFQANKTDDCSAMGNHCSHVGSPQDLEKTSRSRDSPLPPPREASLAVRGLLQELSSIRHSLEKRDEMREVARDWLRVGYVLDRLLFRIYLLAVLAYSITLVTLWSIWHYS

[11] = Oral bioavailability in rat at 2 mg/kg; type: ADME, organism-based; conditions: in vivo
Cytochrome P450 2D6 = Cytochrome P450 2D6 (Homo sapiens, UniProt P10635); assay: Inhibition of human recombinant CYP2D6 using 3-[2-(N,N-diethyl-N-methylamino)ethyl]-7-methoxy- 4-methylcoumarin after 45 mins by fluorescence spectrophotometric analysis; type: ADME
Sequence of Cytochrome P450 2D6 (P10635 whole entry): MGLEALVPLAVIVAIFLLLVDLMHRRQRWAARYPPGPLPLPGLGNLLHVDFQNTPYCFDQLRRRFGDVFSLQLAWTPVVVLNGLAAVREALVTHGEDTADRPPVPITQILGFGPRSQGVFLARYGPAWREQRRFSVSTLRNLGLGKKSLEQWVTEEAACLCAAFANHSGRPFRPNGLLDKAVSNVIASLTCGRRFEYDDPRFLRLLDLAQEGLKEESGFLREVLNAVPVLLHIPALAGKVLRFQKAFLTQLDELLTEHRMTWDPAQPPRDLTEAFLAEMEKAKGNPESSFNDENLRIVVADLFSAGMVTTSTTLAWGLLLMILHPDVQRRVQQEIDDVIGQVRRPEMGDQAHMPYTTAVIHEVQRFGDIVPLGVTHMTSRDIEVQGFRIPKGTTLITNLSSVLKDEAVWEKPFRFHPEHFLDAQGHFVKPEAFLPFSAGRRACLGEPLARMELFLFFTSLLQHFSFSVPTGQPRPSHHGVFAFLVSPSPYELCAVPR

Cytochrome P450 2C9 = Cytochrome P450 2C9 (Homo sapiens, UniProt P11712); assay: Inhibition of human recombinant CYP2C9 using dibenzylfluorescein after 45 mins by fluorescence spectrophotometric analysis; type: ADME
Cytochrome P450 1A2 = target: T1, Cytochrome P450 1A2 (Homo sapiens, UniProt P05177); assay: Inhibition of human recombinant CYP1A2 using 7-ethoxy-3-cyanocoumarin after 28 mins by fluorescence spectrophotometric analysis; type: ADME
T1 sequence (P05177 whole entry): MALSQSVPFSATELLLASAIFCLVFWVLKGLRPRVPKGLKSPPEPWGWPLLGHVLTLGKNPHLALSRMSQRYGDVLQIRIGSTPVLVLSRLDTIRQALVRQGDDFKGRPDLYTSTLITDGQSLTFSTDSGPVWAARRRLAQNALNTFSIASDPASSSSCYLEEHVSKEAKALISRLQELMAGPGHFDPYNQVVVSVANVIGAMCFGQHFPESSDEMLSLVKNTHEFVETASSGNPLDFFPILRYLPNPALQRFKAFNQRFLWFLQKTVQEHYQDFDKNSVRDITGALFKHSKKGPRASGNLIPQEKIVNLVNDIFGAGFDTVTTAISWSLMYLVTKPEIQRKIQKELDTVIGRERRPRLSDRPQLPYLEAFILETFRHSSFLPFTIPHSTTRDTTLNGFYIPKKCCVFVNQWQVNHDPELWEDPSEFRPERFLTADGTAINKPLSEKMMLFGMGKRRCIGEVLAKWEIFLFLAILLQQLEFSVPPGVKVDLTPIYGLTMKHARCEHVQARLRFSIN

Liver microsomes = assay: Intrinsic clearance in human liver microsomes at 1 uM after 60 mins by LC-MS/MS analysis; type: ADME, Microsome; conditions: 1 h
[12] = target: Sodium-dependent dopamine transporter (Rattus norvegicus, UniProt P23977); assay: Inhibition of DAT-mediated [3H]DA in rat synaptosomes by scintillation counting; type: subcellular, Brain
[13] = target: T2, 5-hydroxytryptamine receptor 3A (Homo sapiens, UniProt P46098); assay: Binding affinity to human 5HT3A receptor
T2 sequence (P46098 whole entry): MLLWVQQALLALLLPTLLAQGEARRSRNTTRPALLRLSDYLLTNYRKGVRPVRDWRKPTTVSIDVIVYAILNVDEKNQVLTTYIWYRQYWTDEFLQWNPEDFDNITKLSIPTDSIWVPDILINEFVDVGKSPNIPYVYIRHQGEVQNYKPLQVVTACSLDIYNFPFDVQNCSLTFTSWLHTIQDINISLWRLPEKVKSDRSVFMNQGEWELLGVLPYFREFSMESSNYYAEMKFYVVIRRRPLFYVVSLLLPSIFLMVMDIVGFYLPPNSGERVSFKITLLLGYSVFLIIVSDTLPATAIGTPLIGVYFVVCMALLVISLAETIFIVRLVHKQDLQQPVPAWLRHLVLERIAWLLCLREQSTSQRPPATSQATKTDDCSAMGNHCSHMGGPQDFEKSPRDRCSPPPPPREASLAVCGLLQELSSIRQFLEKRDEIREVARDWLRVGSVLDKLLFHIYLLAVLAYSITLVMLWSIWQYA

[14] = target: T3, 5-hydroxytryptamine receptor 1B (Homo sapiens, UniProt P28222); assay: Binding affinity at human 5HT1B receptor
T3 sequence (P28222 whole entry): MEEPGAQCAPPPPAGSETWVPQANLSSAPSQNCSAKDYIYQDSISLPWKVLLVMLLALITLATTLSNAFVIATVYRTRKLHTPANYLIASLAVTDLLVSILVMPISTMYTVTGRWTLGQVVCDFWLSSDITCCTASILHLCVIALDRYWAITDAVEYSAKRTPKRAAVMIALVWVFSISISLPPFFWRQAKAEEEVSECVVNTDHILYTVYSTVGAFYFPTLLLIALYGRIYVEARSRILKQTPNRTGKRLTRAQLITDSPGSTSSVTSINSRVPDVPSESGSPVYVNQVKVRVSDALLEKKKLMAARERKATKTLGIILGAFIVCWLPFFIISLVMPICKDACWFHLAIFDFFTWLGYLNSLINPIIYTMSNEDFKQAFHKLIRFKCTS

[15] = target: T3, 5-hydroxytryptamine receptor 1B; assay: Partial agonist activity at human 5HT1B receptor expressed in CHO cells assessed as [35S]GTPgammaS binding; type: functional, cell-based
[16] = target: Melanocortin receptor 4 (Homo sapiens) (UniProt P32245); assay: Inhibition of human MC4 receptor at 1 uM
Sequence of Melanocortin receptor 4 (Homo sapiens) (P32245 whole entry): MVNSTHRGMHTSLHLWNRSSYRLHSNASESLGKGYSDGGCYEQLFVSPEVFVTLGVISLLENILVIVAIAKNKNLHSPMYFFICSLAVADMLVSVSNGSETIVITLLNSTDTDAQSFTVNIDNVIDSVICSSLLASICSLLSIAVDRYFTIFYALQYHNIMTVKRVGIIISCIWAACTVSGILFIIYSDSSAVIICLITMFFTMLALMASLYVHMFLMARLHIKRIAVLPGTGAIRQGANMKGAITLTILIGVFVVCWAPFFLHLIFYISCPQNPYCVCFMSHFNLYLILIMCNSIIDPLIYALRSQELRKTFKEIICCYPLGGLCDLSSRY

[17] = target: T4, 5-hydroxytryptamine receptor 3A (Homo sapiens) (UniProt P46098); assay: Inhibition of human 5HT3A receptor at 1 uM
T4 sequence (whole entry): T2 sequence (P46098 whole entry)

[18] = target: T3, 5-hydroxytryptamine receptor 1B; assay: Inhibition of human 5HT1B receptor at 1 uM
[19] = target: T4, 5-hydroxytryptamine receptor 3A (Homo sapiens); assay: Agonist activity at human 5HT3A receptor expressed in xenopus oocytes by electrophysiological method in presence of ondansetron; conditions: Oocyte
Rattus norvegicus [20] = assay: Antidepression activity in Harlan rat assessed as increase in extracellular 5HT level in ventral hippocampus region at 2.5 to 10 mg/kg, sc by microdialysis method; conditions: TDE = time-dependent effect
Rattus norvegicus [21] = assay: Antidepression activity in sc dosed Harlan rat assessed as increase in extracellular 5HT level in ventral hippocampus region measured up to 180 mins by microdialysis method
Rattus norvegicus [22] = assay: Antidepression activity in Harlan rat assessed as increase in extracellular 5HT level in ventral hippocampus region at 2.5 mg/kg, sc measured from 60 to 120 mins by microdialysis method
Rattus norvegicus [23] = assay: Antidepression activity in Harlan rat assessed as increase in extracellular 5HT level in medial prefrontal cortex region at 5 to 10 mg/kg, sc administered QD for 3 days by microdialysis method

For `Cc1ccc(Sc2ccccc2N2CCNCC2)c(C)c1.Cl`, the Occ (Rattus norvegicus [1]) was 43%, the Occ (Rattus norvegicus [2]) was 57% and the Ki [3] was 19 nM. The Ki [4] was 330 nM, the Ki [5] was 220 nM and the Ki [6] was 180 nM. It also gave a Ki [7] of 560 nM, a Ki [8] of 46 nM and a Ki (Histamine H2 receptor) of 180 nM. It also gave a Ki (Histamine H1 receptor) of 180 nM, a Ki [9] of 1.6 nM and an IC50 [10] of 0.18 nM. It also gave a bioavailability [11] of 16%, an IC50 (Cytochrome P450 2D6) of 9800 nM and an IC50 (Cytochrome P450 2C9) of 39000 nM. It also gave an IC50 (Cytochrome P450 1A2) of 40000 nM, a CLH (Liver microsomes) of 0.5 L/min and an IC50 [12] of 890 nM. It also gave a Ki [13] of 3.7 nM, a Ki [14] of 33 nM and an EC50 [15] of 120 nM. The inhibition [16] was 51%, the inhibition [17] was 100% and the inhibition [18] was 100%. For the same molecule, the Activity [19] was “inactive”, the Activity (Rattus norvegicus [20]) was “tde” and the Activity (Rattus norvegicus [21]) was “Dose-dependent effect”. For the same molecule, the Activity (Rattus norvegicus [22]) was “Active” and the Activity (Rattus norvegicus [23]) was “Active”.
